Entries after “also recorded” stand apart in the source; their conditions may differ. Where two headings read alike, the source gives them in different places.
Key:
rise in blood sugar [1] = test: Action to depress the rise in blood sugar after starch loading to mice; assay type: in vivo, ICR male mice; settings: starch 1 g/kg; for Rise in blood sugar: average ± standard error
[2] = assay type: in vivo, ICR male mice
Excerpt: (Action to depress increase in body weight of mice)
ICR male mice after the elapse of 5 weeks from their birth were used in proportions of 10 mice per group.
Mice of a control group were caused to freely ingest the same feed as those used in the run groups except that L-arabinose was not added.
The mice of each group were separately weighed after 10 days, 20 days, 30 days and 60 days from the beginning of the ingestion to determine their weight increases from the initial weights, thereby calculating an average value of the weights increased in each group. The amounts of the feeds and water ingested were also determined.

rise in blood sugar [3] = test: Action to depress the rise in blood sugar after sucrose loading to mice; assay type: in vivo, ICR male mice; settings: for Rise in blood sugar / action to depress the rise in blood sugar due to sucrose loading (in words): sucrose 1 g/kg; for Rise in blood sugar: average ± standard error; for action to depress the rise in blood sugar due to sucrose loading (in words): orally 25, 50 and 100 mg/kg (L-arabinose, D-xylose) or 100 mg/kg (others); for action to depress the rise in blood sugar for sucrose or starch loading (in words): summary statement
Excerpt: (Action to depress the rise in blood sugar after carbohydrate loading)
ICR male mice (weight 30-35 g) were used in proportions of 5 mice per group.
After causing the mice to fast, sucrose or starch was orally administered in a proportion of 1 g/kg to the mice of each group, and at the same time substances to be tested were orally given to mice of their corresponding groups.
Blood was collected from the retroorbital sinus of each mouse before carbohydrate loading and upon elapsed times of 30 minutes, 60 minutes and 120 minutes after the loading to determine the concentration of glucose in the blood plasma by the glucose oxidase method.

[4] = system: maltase (carbohydrase derived from rabbit small intestine mucous membrane); test: Action to inhibit the hydrolytic activity of homogenate prepared from rabbit small intestine mucous membrane: maltase inhibition; assay type: biochemical; settings: for Maltase inhibition rate: substrate maltose 20 mM, pH 6.8, 37° C., 15 minutes
Experimental: (§1) (Action to inhibit the hydrolytic activity of homogenate prepared from rabbit small intestine mucous membrane to carbohydrate)
(§2) A native kind of white rabbits (weight: 3.0-3.5 kg) were sacrificed by exsanguination to take out their small intestines.
(§3) After freezing and thawing the small intestines thus taken out, they were homogenized in a 5 mM EDTA buffer (pH: 7.0) and subjected to centrifugation for 60 minutes at 60,000×g. Precipitate thus formed was collected and suspended again in a 10 mM potassium phosphate buffer (pH: 7.0), thereby obtaining a crude enzyme suspension.
(§4) Sucrose (20 mM) and maltose (20 mM) were used as substrates.
(§5) Each reaction mixture was formulated so as to contain 350 microliters of a 100 mM maleate buffer (pH: 6.8), 100 microliters of a substrate solution, 50 microliters of the crude enzyme suspension and 50 microliters of a test solution. Substances to be tested were separately dissolved in a maleate buffer (pH: 6.8) before use.
(§6) Respective reactions were conducted for 15 minutes at 37° C.

[5] = in vivo; cited from earlier work
[6] = target: T1, sucrase (carbohydrase derived from rabbit small intestine mucous membrane) (Oryctolagus cuniculus, UniProt P07768); test: Action to inhibit the hydrolytic activity of homogenate prepared from rabbit small intestine mucous membrane: sucrase inhibition; assay type: biochemical; settings: for inhibition at 250 µg/mL / inhibition at 500 µg/mL / inhibition at 1000 µg/mL / inhibition at 2000 µg/mL: 0.25 h, substrate sucrose 20 mM, pH 6.8, 37° C., 15 minutes, read-out: Sucrase inhibition rate; for inhibition at 250 µg/mL: 25 mg/dl; for inhibition at 500 µg/mL: 50 mg/dl; for inhibition at 1000 µg/mL: 100 mg/dl; for inhibition at 2000 µg/mL: 200 mg/dl
T1 construct: suspended again in a 10 mM potassium phosphate buffer (pH: 7.0), thereby obtaining a crude enzyme suspension; from tissue; host or cells: rabbit small intestine (title: mucous membrane), homogenate, 60,000×g precipitate
T1 sequence (P07768 1008-1827 limits assumed): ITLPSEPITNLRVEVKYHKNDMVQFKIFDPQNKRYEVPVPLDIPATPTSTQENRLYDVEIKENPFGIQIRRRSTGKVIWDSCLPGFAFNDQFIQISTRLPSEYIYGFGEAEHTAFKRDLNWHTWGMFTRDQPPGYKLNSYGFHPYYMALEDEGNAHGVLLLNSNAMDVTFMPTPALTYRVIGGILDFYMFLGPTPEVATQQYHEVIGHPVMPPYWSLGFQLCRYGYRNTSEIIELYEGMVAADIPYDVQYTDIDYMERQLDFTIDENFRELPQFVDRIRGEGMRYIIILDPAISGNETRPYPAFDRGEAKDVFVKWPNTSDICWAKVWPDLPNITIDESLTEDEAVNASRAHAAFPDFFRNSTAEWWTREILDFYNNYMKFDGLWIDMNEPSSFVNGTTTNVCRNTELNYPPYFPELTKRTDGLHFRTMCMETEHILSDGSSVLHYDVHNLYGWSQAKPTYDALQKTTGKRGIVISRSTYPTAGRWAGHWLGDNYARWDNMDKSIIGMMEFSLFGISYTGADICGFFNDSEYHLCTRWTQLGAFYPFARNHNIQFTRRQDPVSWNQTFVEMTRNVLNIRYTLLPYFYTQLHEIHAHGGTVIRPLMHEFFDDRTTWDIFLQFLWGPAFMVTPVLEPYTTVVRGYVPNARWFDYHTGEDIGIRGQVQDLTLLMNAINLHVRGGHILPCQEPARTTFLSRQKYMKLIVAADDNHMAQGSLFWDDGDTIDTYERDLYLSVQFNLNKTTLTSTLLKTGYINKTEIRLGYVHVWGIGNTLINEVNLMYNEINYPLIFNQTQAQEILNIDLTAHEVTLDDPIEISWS
T1 sequence (P07768 2-1007 partner limits assumed): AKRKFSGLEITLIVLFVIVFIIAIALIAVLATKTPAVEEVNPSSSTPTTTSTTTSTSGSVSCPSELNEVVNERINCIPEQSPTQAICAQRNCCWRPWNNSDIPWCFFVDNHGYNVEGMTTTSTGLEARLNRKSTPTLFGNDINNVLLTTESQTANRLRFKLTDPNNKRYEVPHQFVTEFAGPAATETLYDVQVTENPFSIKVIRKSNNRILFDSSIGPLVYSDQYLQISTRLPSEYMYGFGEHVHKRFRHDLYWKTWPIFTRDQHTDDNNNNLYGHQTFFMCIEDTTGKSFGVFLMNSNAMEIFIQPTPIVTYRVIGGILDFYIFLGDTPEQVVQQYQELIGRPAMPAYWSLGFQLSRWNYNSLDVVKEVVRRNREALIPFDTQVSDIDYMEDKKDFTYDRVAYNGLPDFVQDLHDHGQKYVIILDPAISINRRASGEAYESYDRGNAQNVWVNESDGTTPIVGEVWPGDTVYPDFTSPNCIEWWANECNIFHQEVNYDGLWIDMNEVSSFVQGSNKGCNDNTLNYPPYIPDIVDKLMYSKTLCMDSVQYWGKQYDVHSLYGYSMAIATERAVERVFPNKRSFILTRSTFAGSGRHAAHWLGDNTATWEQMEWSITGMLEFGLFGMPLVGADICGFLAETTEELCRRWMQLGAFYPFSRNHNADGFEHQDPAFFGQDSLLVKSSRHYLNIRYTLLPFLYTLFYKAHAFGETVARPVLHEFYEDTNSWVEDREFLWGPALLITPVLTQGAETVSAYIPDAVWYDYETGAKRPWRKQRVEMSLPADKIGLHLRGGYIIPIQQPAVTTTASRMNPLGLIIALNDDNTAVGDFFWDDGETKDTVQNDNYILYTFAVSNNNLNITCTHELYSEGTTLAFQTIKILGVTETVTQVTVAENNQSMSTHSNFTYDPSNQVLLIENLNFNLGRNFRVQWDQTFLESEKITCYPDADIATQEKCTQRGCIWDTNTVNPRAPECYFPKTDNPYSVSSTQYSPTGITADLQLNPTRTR
Experimental: as §1, §2, §3, §4, §5, §6

[7] = dose 25 mg/kg oral, after 30 min.
[8] = dose 25 mg/kg oral, after 60 min.
[9] = dose 50 mg/kg oral, after 30 min.
[10] = dose 50 mg/kg oral, after 60 min.
[11] = dose 100 mg/kg oral, after 30 min.
[12] = dose 100 mg/kg oral, after 60 min.
[13] = dose 100 mg/kg oral, after 120 min.
[14] = 0.5%, 1.0%, 2.0% in feed, during the experiment

In the case of `O=C[C@H](O)[C@@H](O)[C@@H](O)CO` [L-Arabinose, L-arabinose], the “depressing action on the rise in blood sugar due to starch loading (in words)” value (rise in blood sugar [1]) is reported as “depressing action on the rise in blood sugar due to starch loading in dependence on the dose”, the “Rise in blood sugar” value (rise in blood sugar [1]; [7]) is reported as 91.1 Δmg/dl and the “Rise in blood sugar” value (rise in blood sugar [1]; [8]) is reported as 68.5 Δmg/dl. The “Rise in blood sugar” value (rise in blood sugar [1]; dose 25 mg/kg oral, after 120 min.) was 29.8 Δmg/dl, the “Rise in blood sugar” value (rise in blood sugar [1]; [9]) was 71.4 Δmg/dl and the “Rise in blood sugar” value (rise in blood sugar [1]; [10]) was 54.6 Δmg/dl. For the same compound, the “Rise in blood sugar” value (rise in blood sugar [1]; [11]) was 59.6 Δmg/dl, the “Rise in blood sugar” value (rise in blood sugar [1]; [12]) was 48.3 Δmg/dl and the “Rise in blood sugar” value (rise in blood sugar [1]; [13]) was 24.6 Δmg/dl. It also gave a Weight increase ([2]; 0.5% in feed (Group 1 / A1), after 10 days) of 5.9 g, a Weight increase ([2]; 0.5% in feed (Group 1 / A1), after 20 days) of 9.2 g and a Weight increase ([2]; 0.5% in feed (Group 1 / A1), after 30 days) of 12.4 g. For the same compound, the Weight increase ([2]; 0.5% in feed (Group 1 / A1), after 60 days) was 15.0 g, the death [2, 14] was “no death at all” and the “general medical condition and behavior” value [2, 14] was “no abnormality in general medical condition and behavior”. For the same compound, the “weight increase compared with control group (in words)” value ([2]; 0.5%, 1.0%, 2.0% in feed, up to 60 days) was “less weight increases compared with the mice of the control group”, the Weight increase ([2]; 1.0% in feed (Group 2 / A2), after 10 days) was 5.3 g and the Weight increase ([2]; 1.0% in feed (Group 2 / A2), after 20 days) was 8.0 g. For the same compound, the Weight increase ([2]; 1.0% in feed (Group 2 / A2), after 30 days) was 11.7 g, the Weight increase ([2]; 1.0% in feed (Group 2 / A2), after 60 days) was 13.8 g and the Weight increase ([2]; 2.0% in feed (Group 3 / A3), after 10 days) was 4.7 g. It also gave a Weight increase ([2]; 2.0% in feed (Group 3 / A3), after 20 days) of 7.2 g, a Weight increase ([2]; 2.0% in feed (Group 3 / A3), after 30 days) of 10.2 g and a Weight increase ([2]; 2.0% in feed (Group 3 / A3), after 60 days) of 12.1 g. For the same compound, the “Rise in blood sugar” value (rise in blood sugar [3]; [7]) was 71.7 Δmg/dl, the “Rise in blood sugar” value (rise in blood sugar [3]; [8]) was 49.4 Δmg/dl and the “Rise in blood sugar” value (rise in blood sugar [3]; [9]) was 62.9 Δmg/dl. The “Rise in blood sugar” value (rise in blood sugar [3]; [10]) was 37.3 Δmg/dl, the “Rise in blood sugar” value (rise in blood sugar [3]; dose 50 mg/kg oral, after 120 min.) was 21.5 Δmg/dl and the “Rise in blood sugar” value (rise in blood sugar [3]; [11]) was 41.8 Δmg/dl. The “Rise in blood sugar” value (rise in blood sugar [3]; [12]) was 30.4 Δmg/dl, the “Rise in blood sugar” value (rise in blood sugar [3]; [13]) was 20.3 Δmg/dl and the “action to depress the rise in blood sugar due to sucrose loading (in words)” value (“action … to sucrose loading (in words)” below) (rise in blood sugar [3]) was “depressed in dependence on the dose”. For the same compound, the “action to depress the rise in blood sugar for sucrose or starch loading (in words)” value (rise in blood sugar [3]) was “remarkably effective in depressing the rise in blood sugar after carbohydrate loading; also recorded: effective action to depress the rise in blood sugar”, the “maltase-inhibiting action (in words)” value [4] was “strong sucrase-inhibiting action and maltase-inhibiting action” and the Maltase inhibition rate ([4]; 25 mg/dl) was 28.5%. For the same compound, the Maltase inhibition rate ([4]; 50 mg/dl) was 35.8%, the Maltase inhibition rate ([4]; 100 mg/dl) was 45.7% and the Maltase inhibition rate ([4]; 200 mg/dl) was 47.4%. For the same compound, the “uptake from the digestive tract” value [5] was “hard to be taken up from the digestive tract”, the “sucrase-inhibiting action (in words)” value [6] was “strong sucrase-inhibiting action” and the inhibition at 250 µg/mL [6] was 25.3%. The inhibition at 500 µg/mL [6] was 37.8%, the inhibition at 1000 µg/mL [6] was 52% and the inhibition at 2000 µg/mL [6] was 66.3%.

For `C[C@H](O)[C@@H](O)[C@@H](O)[C@H](O)C=O` [L-Fucose, L-fucose], the “Rise in blood sugar” value (rise in blood sugar [3]; [11]) was 62.0 Δmg/dl, the “Rise in blood sugar” value (rise in blood sugar [3]; [12]) was 44.4 Δmg/dl and the “Rise in blood sugar” value (rise in blood sugar [3]; [13]) was 26.3 Δmg/dl. For the same compound, the “action … to sucrose loading (in words)” value (rise in blood sugar [3]) was “significantly depressed”, the “action to depress the rise in blood sugar for sucrose or starch loading (in words)” value (rise in blood sugar [3]) was “effective action to depress the rise in blood sugar” and the “maltase-inhibiting action (in words)” value [4] was “strong sucrase-inhibiting action and maltase-inhibiting action”. The Maltase inhibition rate ([4]; 25 mg/dl) was 16.4%, the Maltase inhibition rate ([4]; 50 mg/dl) was 18.4% and the Maltase inhibition rate ([4]; 100 mg/dl) was 24.8%. The Maltase inhibition rate ([4]; 200 mg/dl) was 31.0%, the “sucrase-inhibiting action (in words)” value [6] was “strong sucrase-inhibiting action” and the inhibition at 250 µg/mL [6] was 11.6%. The inhibition at 500 µg/mL [6] was 16.2%, the inhibition at 1000 µg/mL [6] was 32.8% and the inhibition at 2000 µg/mL [6] was 30.7%.

In the case of `O=C[C@@H](O)[C@H](O)[C@@H](O)CO` [L-Xylose, L-xylose], the “Rise in blood sugar” value (rise in blood sugar [3]; [11]) is reported as 66.3 Δmg/dl, the “Rise in blood sugar” value (rise in blood sugar [3]; [12]) is reported as 53.2 Δmg/dl and the “action … to sucrose loading (in words)” value (rise in blood sugar [3]) is reported as “significantly depressed”. For the same compound, the “action to depress the rise in blood sugar for sucrose or starch loading (in words)” value (rise in blood sugar [3]) was “effective action to depress the rise in blood sugar”, the “maltase-inhibiting action (in words)” value [4] was “inhibiting actions second to these” and the Maltase inhibition rate ([4]; 200 mg/dl) was 19.4%. For the same compound, the “sucrase-inhibiting action (in words)” value [6] was “inhibiting actions second to these”, the inhibition at 500 µg/mL [6] was 8% and the inhibition at 1000 µg/mL [6] was 11.9%. For the same compound, the inhibition at 2000 µg/mL [6] was 24.5%.

Reference: patent US5468734A, “Prophylactic and remedial preparation for diseases attendant on hyperglycemia, and wholesome food” (Godo Shusei Co., Ltd., priority 1992, dated 1995)
